Experimental findings from patent US10729633B2, “Methods for boosting UVA photo-protection using antioxidants” (L'OREAL, priority 2018, dated 2020) are described below.

Assay [1] is described as follows: In vivo PPD: UVPPD PF according to ISO 24442. As to conditions: conclusion in words from PPD data of Examples 2 and 3. Here is the method:
To characterize protection from UVA radiation, the PPD (Persistent Pigment Darkening) method, which measures the color of the skin observed 2 to 4 hours after exposure of the skin to UVA radiation, is used. This method was adopted in 1996 by the Japanese Cosmetic Industry Association (JCIA) as the official test procedure for the UVA labelling of products and is commonly used in industry, especially in Europe and the United States. See JAPAN COSMETIC […] ASSOCIATION TECHNICAL BULLETIN, Measurement Standards for UVA Protection Efficacy. Issued Nov. 21, 1995 and effective of Jan. 1, 1996), which is incorporated herein by reference in its entirety. […]
The degree of UVA protection provided by each of the formulations was determined in terms of UVPPD PF. […]
The UVPPD PF for each of sunscreen formulations A, B, and C was determined according to ISO 24442, which was adopted by the Japan Cosmetic Industry Association in 2012 for characterization of UVA protection and is incorporated herein by reference in its entirety. […] UVA radiation can be monitored continuously during exposure using a Model DCS-1 Sunburn UV Meter/Dose Controller System (Solar Light Co.), formerly known as the Robertson-Berger Sunburn meter (R-B meter). […] The MPPD of unprotected skin is determined under standardized lighting conditions 2 to 4 hours after exposures. […]

Assay [2] in a line: Oxygen Radical Absorbance Capacity (ORAC) assay. Type of assay: biochemical. The settings on record: in tubo, Trolox standard. The procedure:
(§1) In tubo antioxidant testing was carried out to determine the antioxidant profile of antioxidants that boost UVA photo-protection.
The Oxygen Radical Absorbance Capacity (ORAC) assay is one of most commonly used methods to evaluate the capacity of antioxidants against ROS (reactive oxygen species), specific for peroxyl which is one of the most important free radicals present in the human skin environment. The ORAC assay measures the oxidative degradation of the fluorescent probe (fluorescein) after being mixed with free radical generators such as azo-initiator compounds (2,2′-Azobis(2-amidinopropane) dihydrochloride, AAPH). Azo-initiators produce the peroxyl radical by heating, which damages the fluorescent molecule, resulting in the loss of fluorescence. Antioxidants protect the fluorescent molecule from the oxidative degeneration. By quantifying the decay of fluorescence using a fluorometer, the degree of protection is determined comparing with a standard control antioxidant Trolox. The result is expressed in mol equivalent of Trolox per gram of sample (i.e., μmol TE/g). Equipment that can automatically measure and calculate the capacity is commercially available, such as the VarioSkan flash microplate reader from Thermo Scientific. To test samples for ORAC, compounds are dissolved into water-based NaH2PO4 buffer.

Assay [3] is described as follows: Hydroxyl Radical Absorbance Capacity (HORAC) assay. Type of assay: biochemical. As to conditions: in tubo, Gallic Acid standard. The procedure: as §1
The HORAC assay is another common method to examine antioxidant activity. It is specific for hydroxyl radicals. The Varioskan Flash is employed for the quantification of the capacity of an antioxidant to avert the hydroxyl radical. The hydroxyl radical, generated from hydrogen peroxide and Cobalt (II) fluoride, will quench a fluorescent probe by a hydrogen atom transfer reaction. In the presence of an antioxidant, however, the molecule will chelate the Co(II), preventing the generation of the hydroxyl radical and initially block or prevent the quenching of the probe, causing a delay in the fluorescence decay profile. The area under the fluorescence decay curves for samples with and without the presence of an antioxidant molecule are compared to that of a standard reference material and the hydroxyl radical averting capacity is determined. By quantifying the decay of fluorescence using a fluorometer, the degree of protection is determined by comparison with a standard control antioxidant Gallic Acid (standard reference material). The result is expressed in μmol equivalent of Gallic Acid per gram of sample (i.e., μmol GAE/g). Equipment that can automatically measure and calculate the capacity is commercially available, such as the VarioSkan flash microplate reader from Thermo Scientific. To test samples by using HORAC, compounds are dissolved into water-based NaH2PO4 buffer.

Assay [4] can be described thus: Superoxide Radical Absorbance Capacity (SORAC) assay. Type of assay: biochemical. Also noted: key: None: No detectable value. As to conditions: in tubo, WST-1 probe. Here is the method: as §1
The Superoxide Radical Absorbance Capacity (SORAC) assay is an in tubo method to determine the relative capacity of an antioxidant to dismutate the superoxide anion. The Varioskan Flash is employed to measure the superoxide dismutase-catalyzed dismutation of the superoxide anion in the presence of the absorbance probe, water-soluble tetrazolium salt (WST-1). WST-Formazan is produced when WST-1 is […] by superoxide anion that is generated by the mixture of xanthine and xanthine oxidase. One unit of SOD activity is defined as the quantity of antioxidant to obtain 50% inhibition of the rate of reduction of WST-1. The final SORAC value is expressed as one unit of SOD activity per milligram of dry weight of antioxidant material at 50% inhibition (Unit/mg).
(In general: Tetrazolium assays rely on reduction of a dye to a coloured formazan, in cell work by metabolically active cells.)

Turning to `O=C(O)[C@H]1O[C@@H](Oc2cc3oc(-c4ccccc4)cc(=O)c3c(O)c2O)[C@H](O)[C@@H](O)[C@@H]1O` [Baicalin, reference compound], the “boosting effect on UVA photo-protection” value in assay [1] was “did not boost UVA photo-protection”. Besides, the ORAC-peroxyl result in assay [2] is on record as “Medium (4500-10000)”. Besides, in assay [3], the HORAC-hydroxyl result is “Weak (<2600)”. In assay [4], the SORAC-superoxide result was “Medium (200-1000)”.

For `COc1cc(/C=C/C(=O)O)ccc1O` [Ferulic acid], the ORAC-peroxyl result in assay [2] is reported as “Strong (>10000)”. In addition, the HORAC-hydroxyl result in assay [3] is “Strong (>10000)”. For the same compound, the SORAC-superoxide result in assay [4] is “Weak (<200)”.

As for `O=C(CCc1ccc(O)cc1)c1c(O)cc(O)cc1O` [Phloretin], the ORAC-peroxyl result in assay [2] is reported as “Strong (>10000)”. Besides, the HORAC-hydroxyl result in assay [3] is recorded as “Medium (2600-10000)”. Further, in assay [4], the SORAC-superoxide result was “None”.

Regarding `OC[C@H]1O[C@@H](Oc2cc(O)cc(/C=C/c3ccc(O)cc3)c2)[C@H](O)[C@@H](O)[C@@H]1O` [Polydatin], the ORAC-peroxyl entry in assay [2] was “Strong (>10000)”. Also, the HORAC-hydroxyl entry in assay [3] is “Strong (>10000)”. In assay [4], the SORAC-superoxide result is given as “None”.
